Legend:
Recombinant IKKα = molecular target: T1, Recombinant IKKα (Homo sapiens, UniProt O15111); experiment: DELFIA IKKα kinase assay (apparent Ki, Cheng-Prusoff); format: biochemical
T1 construct: purchased Millipore, Dundee, UK
T1 sequence (O15111 1-745): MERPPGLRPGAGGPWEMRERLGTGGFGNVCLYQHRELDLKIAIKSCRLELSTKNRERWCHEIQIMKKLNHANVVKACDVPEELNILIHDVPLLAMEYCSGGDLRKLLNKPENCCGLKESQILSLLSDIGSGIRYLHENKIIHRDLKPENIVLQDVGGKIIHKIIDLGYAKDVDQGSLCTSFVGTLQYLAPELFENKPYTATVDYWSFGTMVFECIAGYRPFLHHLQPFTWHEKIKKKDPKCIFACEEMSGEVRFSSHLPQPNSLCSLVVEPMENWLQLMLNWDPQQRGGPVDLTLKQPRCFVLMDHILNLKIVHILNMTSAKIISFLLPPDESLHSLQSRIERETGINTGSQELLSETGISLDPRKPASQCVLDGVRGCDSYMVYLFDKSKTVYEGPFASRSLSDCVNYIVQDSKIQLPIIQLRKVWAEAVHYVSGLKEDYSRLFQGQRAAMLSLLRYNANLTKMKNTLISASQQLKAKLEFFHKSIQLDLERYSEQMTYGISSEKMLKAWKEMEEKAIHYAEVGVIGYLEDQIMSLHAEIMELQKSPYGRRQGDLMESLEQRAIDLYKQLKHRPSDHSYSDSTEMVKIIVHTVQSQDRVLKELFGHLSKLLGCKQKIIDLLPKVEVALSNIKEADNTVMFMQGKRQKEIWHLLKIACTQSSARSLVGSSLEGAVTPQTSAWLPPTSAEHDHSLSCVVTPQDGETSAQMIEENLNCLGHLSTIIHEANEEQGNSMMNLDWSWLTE
Summary of the method: (§1)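 DELFIA time-resolved fluorescence (ex 340/em 615 nm) quantified phosphorylation of a biotinylated IκB-α Ser32 peptide (0.375 μM) by 37 nM recombinant IKKα or IKKβ. Reactions used 40 μM ATP, Tris pH 7.5 buffer with MgCl2, DTT and BSA, 60 min at 30° C. Cheng-Prusoff equation gave apparent Ki.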

Recombinant IKKβ = molecular target: T2, Recombinant IKKβ (Homo sapiens, UniProt O14920); experiment: DELFIA IKKβ kinase assay (apparent Ki, Cheng-Prusoff); format: biochemical
T2 construct: purchased Millipore, Dundee, UK
T2 sequence (O14920 1-756): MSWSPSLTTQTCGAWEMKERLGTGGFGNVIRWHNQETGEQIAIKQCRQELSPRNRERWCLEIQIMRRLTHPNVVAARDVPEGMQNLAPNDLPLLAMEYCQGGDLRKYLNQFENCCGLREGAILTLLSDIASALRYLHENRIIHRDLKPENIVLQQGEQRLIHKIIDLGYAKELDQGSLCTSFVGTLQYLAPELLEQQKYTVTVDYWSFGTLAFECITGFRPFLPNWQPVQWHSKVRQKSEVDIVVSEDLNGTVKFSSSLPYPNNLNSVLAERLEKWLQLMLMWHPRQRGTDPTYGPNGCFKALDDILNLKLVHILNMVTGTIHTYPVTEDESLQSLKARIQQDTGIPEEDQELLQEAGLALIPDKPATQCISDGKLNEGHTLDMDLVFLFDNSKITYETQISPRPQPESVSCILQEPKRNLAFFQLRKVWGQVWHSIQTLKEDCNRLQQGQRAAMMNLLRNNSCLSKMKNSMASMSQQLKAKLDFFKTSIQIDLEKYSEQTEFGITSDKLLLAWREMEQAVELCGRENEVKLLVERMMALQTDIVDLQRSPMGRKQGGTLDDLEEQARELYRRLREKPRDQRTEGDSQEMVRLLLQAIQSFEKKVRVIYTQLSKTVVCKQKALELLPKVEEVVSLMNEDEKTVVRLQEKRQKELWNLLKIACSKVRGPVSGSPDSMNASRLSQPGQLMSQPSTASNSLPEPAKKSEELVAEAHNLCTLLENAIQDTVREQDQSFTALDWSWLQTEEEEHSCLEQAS
Summary of the method: as §1

[1] = DELFIA assay (first line of an example)
[2] = non-italicised figure: DELFIA assay

CC(C)(C)C#Cc1cc(-c2ccnc(NC3CCOC3)c2)cc2c(N)n[nH]c12 (stereo not shown) [Example 322, 7-(3,3-Dimethylbut-1-yn-1-yl)-5-(2-((tetrahydrofuran-3-yl)amino)pyridin-4-yl)-1H-indazol-3-amine] showed a Ki (Recombinant IKKα; [1]) of 45 nM and a Ki (Recombinant IKKβ; [1]) of 3130 nM.

With Nc1n[nH]c2ccc(-c3ccnc(NC(=O)Nc4ccccc4)c3)cc12 [Example 50, 1-(4-(3-Amino-1H-indazol-5-yl)pyridin-2-yl)-3-phenylurea] the Ki (Recombinant IKKα; [2]) was 12 nM and the Ki (Recombinant IKKβ; [2]) was 293 nM.

Compound Nc1n[nH]c2ccc(-c3ccnc(NCCO)c3)cc12 [Example 20, 2-((4-(3-Amino-1H-indazol-5-yl)pyridine-2-yl)amino)ethan-1-ol] has a Ki (Recombinant IKKα; [2]) of 46 nM and a Ki (Recombinant IKKβ; [2]) of 630 nM.

With Nc1ccccc1C#Cc1c(-c2ccc3[nH]nc(N)c3c2)ccnc1N [Example 78, 5-(2-Amino-3-((2-aminophenyl)ethynyl)pyridine-4-yl)-1H-indazol-3-amine] the Ki (Recombinant IKKα; [2]) was 17 nM and the Ki (Recombinant IKKβ; [2]) was 59 nM.

In the case of Nc1cc(-c2cc(-c3ccncc3)c3[nH]nc(N)c3c2)ccn1 [Example 128, 5-(2-Aminopyridin-4-yl)-7-(pyridin-4-yl)-1H-indazol-3-amine], the Ki (Recombinant IKKα; [2]) is reported as 35 nM and the Ki (Recombinant IKKβ; [2]) is reported as 1300 nM.

Nc1n[nH]c2ccc(-c3ccnc4[nH]c(CNc5ccccc5)cc34)cc12 [Example 252, 5-(2-((Phenylamino)methyl)-1H-pyrrolo[2,3-b]340yridine-4-yl)-1H-indazol-3-amine] gave a Ki (Recombinant IKKα; [1]) of 6 nM and a Ki (Recombinant IKKβ; [1]) of 59 nM.

COC(=O)Nc1cc(-c2cc(C#CC(C)(C)O)c3[nH]nc(N)c3c2)ccn1 [Example 180, Methyl (4-(3-amino-7-(3-hydroxy-3-methylbut-1-yn-1-yl)-1H-indazol-5-yl)pyridin-2-yl)carbamate] was tested, and the Ki (Recombinant IKKα; [2]) was 5 nM and the Ki (Recombinant IKKβ; [2]) was 826 nM.

In the case of COCCCNc1cc(-c2ccc3[nH]nc(N)c3c2)ccn1 [Example 26, 5-(2-((3-Methoxypropyl)amino)pyridine-4-yl)-1H-indazol-3-amine], the Ki (Recombinant IKKα; [2]) is reported as 34 nM and the Ki (Recombinant IKKβ; [2]) is reported as 754 nM.

For COC(=O)Nc1cc(-c2cc(-c3ccc(CN4CCOCC4)cc3)c3[nH]nc(N)c3c2)ccn1 [Example 328, Methyl (4-(3-amino-7-(4-(morpholinomethyl)phenyl)-1H-indazol-5-yl)pyridin-2-yl)carbamate], the Ki (Recombinant IKKα; [1]) was 24 nM and the Ki (Recombinant IKKβ; [1]) was 407 nM.

Work on COC(=O)Nc1cc(-c2cc(-c3ccc(NC(C)=O)cc3)c3[nH]nc(N)c3c2)ccn1 [Example 326, Methyl (4-(7-(4-acetamidophenyl)-3-amino-1H-indazol-5-yl)pyridin-2-yl)carbamate] yielded a Ki (Recombinant IKKα; [1]) of 14 nM and a Ki (Recombinant IKKβ; [1]) of 87 nM.

CC(C)(C)C#Cc1cc(-c2cc(N)ncc2C#N)cc2c(N)n[nH]c12 [Example 336, 6-Amino-4-(3-amino-7-(3,3-dimethylbut-1-yn-1-yl)-1H-indazol-5-yl)nicotinonitrile] was tested, and the Ki (Recombinant IKKα; [1]) was > 10000 nM and the Ki (Recombinant IKKβ; [1]) was > 10000 nM.

Compound COC(=O)Nc1cc(-c2cc(C#CC3(O)CCCC3)c3[nH]nc(N)c3c2)ccn1 [Example 304, Methyl (4-(3-amino-7-((1-hydroxycyclopentyl)ethynyl)-1H-indazol-5-yl)pyridin-2-yl)carbamate] has a Ki (Recombinant IKKα; [1]) of 64 nM and a Ki (Recombinant IKKβ; [1]) of 275 nM.

With Nc1n[nH]c2c(-c3ccccc3)cc(-c3ccnc4[nH]ccc34)cc12 [Example 7, 7-Phenyl-5-(1H-pyrrolo[2,3-b]pyridin-4-yl)-1H-indazol-3-amine] the Ki (Recombinant IKKα; [2]) was 35 nM and the Ki (Recombinant IKKβ; [2]) was 1260 nM.

In the case of Nc1cc(-c2cc(-c3ccn[nH]3)c3[nH]nc(N)c3c2)ccn1 [Example 133, 5-(2-Aminopyridin-4-yl)-7-(1H-pyrazol-5-yl)-1H-indazol-3-amine], the Ki (Recombinant IKKα; [2]) is reported as 46 nM and the Ki (Recombinant IKKβ; [2]) is reported as 412 nM.

For CN(C)c1ccc(-c2cc(-c3ccnc(N)c3)cc3c(N)n[nH]c23)cc1 [Example 119, 5-(2-Aminopyridin-4-yl)-7-(4-(dimethylamino)phenyl)-1H-indazol-3-amine], the Ki (Recombinant IKKα; [2]) was 84 nM and the Ki (Recombinant IKKβ; [2]) was 2510 nM.

For CS(=O)(=O)c1ccc(NC(=O)Nc2cc(-c3ccc4[nH]nc(N)c4c3)ccn2)cc1 [Example 65, 1-(4-(3-Amino-1H-indazol-5-yl)pyridin-2-yl)-3-(4-(methylsulfonyl)phenyl)urea], the Ki (Recombinant IKKα; [2]) was 27 nM and the Ki (Recombinant IKKβ; [2]) was 419 nM.

For COC(=O)Nc1cc(-c2cc(-c3cccc(CN4CCOCC4)c3)c3[nH]nc(N)c3c2)ccn1 [Example 334, Methyl (4-(3-amino-7-(3-(morpholinomethyl)phenyl)-1H-indazol-5-yl)pyridin-2-yl)carbamate], the Ki (Recombinant IKKα; [1]) was 38 nM and the Ki (Recombinant IKKβ; [1]) was 429 nM.

For CC(C)(C)C#Cc1cc(-c2ccnc(Nc3ncco3)c2)cc2c(N)n[nH]c12 [Example 282, N-(4-(3-Amino-7-(3,3-dimethylbut-1-yn-1-yl)-1H-indazol-5-yl)pyridin-2-yl)oxazol-2-amine], the Ki (Recombinant IKKα; [1]) was 19 nM and the Ki (Recombinant IKKβ; [1]) was 594 nM.

For Nc1n[nH]c2c(C#CCCCCC(=O)O)cc(-c3ccnc4[nH]ccc34)cc12 [Example 215, 7-(3-Amino-5-(1H-pyrrolo[2,3-b]pyridin-4-yl)-1H-indazol-7-yl)hept-6-ynoic acid], the Ki (Recombinant IKKα; [1]) was 38 nM and the Ki (Recombinant IKKβ; [1]) was 256 nM.

With Nc1n[nH]c2ccc(-c3ccnc(NC(=O)NC4CCCCC4)c3)cc12 [Example 40, 1-(4-(3-Amino-1H-indazol-5-yl)pyridin-2-yl)-3-cyclohexylurea] the Ki (Recombinant IKKα; [2]) was 228 nM and the Ki (Recombinant IKKβ; [2]) was > 10000 nM.

CCC(=O)Nc1cc(-c2cc(C#CC(C)(C)C)c3[nH]nc(N)c3c2)ccn1 [Example 165, N-(4-(3-Amino-7-(3,3-dimethylbut-1-yn-1-yl)-1H-indazol-5-yl)pyridin-2-yl)propionamide] gave a Ki (Recombinant IKKα; [2]) of 7 nM and a Ki (Recombinant IKKβ; [2]) of 780 nM.

Nc1cccc(-c2cc(-c3ccnc(N)c3)cc3c(N)n[nH]c23)c1 [Example 107, 7-(3-Aminophenyl)-5-(2-aminopyridin-4-yl)-1H-indazol-3-amine] was tested, and the Ki (Recombinant IKKα; [2]) was 14 nM and the Ki (Recombinant IKKβ; [2]) was 545 nM.

With Cc1noc(C)c1Nc1cc(-c2cc(C#CC(C)(C)C)c3[nH]nc(N)c3c2)ccn1 [Example 317, N-(4-(3-amino-7-(3,3-dimethylbut-1-yn-1-yl)-1H-indazol-5-yl)pyridin-2-yl)-3,5-dimethylisoxazol-4-amine] the Ki (Recombinant IKKα; [1]) was 318 nM and the Ki (Recombinant IKKβ; [1]) was 4040 nM.

With CCCCN(CC)CCNC(=O)c1cc2c(-c3ccc4[nH]nc(N)c4c3)ccnc2[nH]1 [Example 245, 4-(3-Amino-1H-indazol-5-yl)-N-(2-(butyl(ethyl)amino)ethyl)-1H-pyrrolo[2,3-b]pyridine-2-carboxamide] the Ki (Recombinant IKKα; [1]) was 29 nM and the Ki (Recombinant IKKβ; [1]) was 193 nM.

With CC(C)(C)C#Cc1cc(-c2ccnc(NC3COC3)c2)cc2c(N)n[nH]c12 [Example 155, 7-(3,3-Dimethylbut-1-yn-1-yl)-5-(2-(oxetan-3-ylamino)pyridin-4-yl)-1H-indazol-3-amine] the Ki (Recombinant IKKα; [2]) was 15 nM and the Ki (Recombinant IKKβ; [2]) was 784 nM.

In the case of Nc1n[nH]c2ccc(-c3ccnc(NC(=O)Nc4cccc(F)c4)c3)cc12 [Example 51, 1-(4-(3-Amino-1H-indazol-5-yl)pyridine-2-yl)-3-(3-fluorophenyl)urea], the Ki (Recombinant IKKα; [2]) is reported as 14 nM and the Ki (Recombinant IKKβ; [2]) is reported as 126 nM.

For Nc1nccc(-c2ccc3[nH]nc(N)c3c2)c1C1CC1 [Example 100, 5-(2-Amino-3-cyclopropylpyridin-4-yl)-1H-indazol-3-amine], the Ki (Recombinant IKKα; [2]) was 1790 nM and the Ki (Recombinant IKKβ; [2]) was > 10000 nM.

Compound Cc1cc2c(-c3ccc4[nH]nc(N)c4c3)ccnc2[nH]1 [Example 8, 5-(2-Methyl-1H-pyrrolo[2,3-b]pyridin-4-yl)-1H-indazol-3-amine] has a Ki (Recombinant IKKα; [2]) of 2 nM and a Ki (Recombinant IKKβ; [2]) of 33 nM.

Work on CC(C)(C)C#Cc1cc(-c2ccnc(NC(=O)CC3CC3)c2)cc2c(N)n[nH]c12 [Example 170, N-(4-(3-Amino-7-(3,3-dimethylbut-1-yn-1-yl)-1H-indazol-5-yl)pyridin-2-yl)-2-cyclopropylacetamide] yielded a Ki (Recombinant IKKα; [2]) of 26 nM and a Ki (Recombinant IKKβ; [2]) of 1550 nM.
